Assay results as given in US7517889B2, “2,6-substituted-4-monosubstitutedamino-pyrimidine as prostaglandin D2 receptor antagonists” (Aventis Pharmaceuticals, Inc., priority 2004, dated 2009).
Structures can show the parent of a compound that is named as a salt.

biological target: T1, DP receptor (Homo sapiens, UniProt Q13258); assay: SPA cAMP assay in human LS174 T cells (human DP functional assay); type: cell-based; conditions: inhibition of PGD2 (15 nM final) stimulated cAMP, LS174T cells expressing endogenous DP receptor
T1 construct: the human cell line LS174T, which expresses the endogenous DP receptor; endogenous in cells; host or cells: LS174T human cell line
T1 sequence (Q13258 1-359): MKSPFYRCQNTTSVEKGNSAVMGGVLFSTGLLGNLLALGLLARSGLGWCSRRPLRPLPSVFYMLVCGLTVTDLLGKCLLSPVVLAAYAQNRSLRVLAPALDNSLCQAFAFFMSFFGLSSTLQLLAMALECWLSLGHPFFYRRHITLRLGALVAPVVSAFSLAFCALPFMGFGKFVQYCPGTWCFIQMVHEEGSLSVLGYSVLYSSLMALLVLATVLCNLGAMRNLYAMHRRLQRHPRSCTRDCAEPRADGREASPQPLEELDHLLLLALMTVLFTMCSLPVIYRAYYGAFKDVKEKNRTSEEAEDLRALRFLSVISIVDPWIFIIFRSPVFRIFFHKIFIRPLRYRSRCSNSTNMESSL
Summary of the method: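 LS174T cells with endogenous DP receptor, 45,000/well seeded overnight, exposed to compounds at 11 points for 15 min at 37 °C in buffer containing IBMX, with PGD2 stimulation.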

IC50	SMILES
2.3 nM	COc1ccc(CCNc2cc(-c3ccc(-c4cnco4)s3)nc(OC)n2)cc1 [Example 11(a), [2-Methoxy-6-(5-oxazol-5-yl-thiophen-2-yl)-pyrimidin-4-yl]-[2-(4-methoxy-phenyl)-ethyl]-amine]
38 nM	COc1nc(NCC(F)(F)c2ccccc2)cc(-c2cccc(C(C)(C)C(=O)O)c2)n1 [Example 67, 2-{3-[6-(2,2-Difluoro-2-phenyl-ethylamino)-2-methoxy-pyrimidin-4-yl]-phenyl}-2-methyl-propionic acid]
5 nM	COc1nc(NCCc2ccc(Cl)cc2Cl)cc(N2CCCC(c3nn[nH]n3)C2)n1 (centres unmarked) [Example 96, [2-(2,4-Dichloro-phenyl)-ethyl]-{2-methoxy-6-[3-(2H-tetrazol-5-yl)-piperidin-1-yl]-pyrimidin-4-yl}-amine]
369 nM	COc1nc(NCCc2ccc(OC)c(OC)c2)cc(-c2ccc(-c3ccccc3)cc2)n1 [Example 35(e), (6-Biphenyl-4-yl-2-methoxy-pyrimidin-4-yl)-[2-(3,4-dimethoxy-phenyl)-ethyl]-amine]
7 nM	COc1nc(NCCc2ccc(Cl)cc2Cl)cc(N2CCC(C(=O)O)CC2)n1 [Example 97, 1-{6-[2-(2,4-Dichloro-phenyl)-ethylamino]-2-methoxy-pyrimidin-4-yl}-piperidine-4-carboxylic acid]
11 nM	COc1ccc(CCNc2cc(-c3ccc(C(F)F)s3)nc(OC)n2)cc1 [Example 12, [6-(5-Difluoromethyl-thiophen-2-yl)-2-methoxy-pyrimidin-4-yl]-[2-(4-methoxy-phenyl)-ethyl]-amine]
14 nM	COC(=O)Cn1cc(-c2cc(NCCc3c(F)cccc3Cl)nc(OC)n2)ccc1=O [Example 22(d), (5-{6-[2-(2-Chloro-6-fluoro-phenyl)-ethylamino]-2-methoxy-pyrimidin-4-yl}-2-oxo-2H-pyridin-1-yl)-acetic acid methyl ester]
7.6 nM	CCNC(=O)Nc1cccc(-c2cc(NCCc3ccc(OC)cc3)nc(OC)n2)c1 [Example 41, 1-Ethyl-3-(3-{2-methoxy-6-[2-(4-methoxy-phenyl)-ethylamino]-pyrimidin-4-yl}-phenyl)-urea]
1.7 nM	COc1ccc(CCNc2cc(-c3ccsc3CO)nc(OC)n2)cc1 [Example 9(b), (3-{2-Methoxy-6-[2-(4-methoxy-phenyl)-ethylamino]-pyrimidin-4-yl}-thiophen-2-yl)-methanol]
4 nM	CCOC(=O)OC(C)OC(=O)C(C)(C)c1cccc(-c2cc(NCCc3ccc(Cl)cc3Cl)nc(OC)n2)c1 (centres unmarked) [Example 50, 2-(3-{6-[2-(2,4-Dichloro-phenyl)-ethylamino]-2-methoxy-pyrimidin-4-yl}-phenyl)-2-methyl-propionic acid 1-ethoxycarbonyloxy-ethyl ester hydrochloride]
1070 nM	COc1ccc(CNc2cc(-c3cccc(OC)c3)nc(OC)n2)cc1 [Example 43(k), (4-Methoxy-benzyl-[2-methoxy-6-(3-methoxy-phenyl)-pyrimidin-4-yl]-amine hydrochloride]
8.2 nM	COc1ccc(CCNc2cc(-c3ccc(C)s3)nc(OC)n2)cc1 [Example 8(e), [2-Methoxy-6-(5-methyl-thiophen-2-yl)-pyrimidin-4-yl]-[2-(4-methoxy-phenyl)-ethyl]-amine]
6 nM	COc1ccc(CCNc2cc(-c3cccc(-c4cc(C)no4)c3)nc(OC)n2)cc1 [Example 38, {2-Methoxy-6-[3-(3-methyl-isoxazol-5-yl)-phenyl]-pyrimidin-4-yl}-[2-(4-methoxy-phenyl)-ethyl]-amine]
13 nM	COc1ccc(CCNc2cc(-c3ccc(N4CCOCC4)cc3)nc(OC)n2)cc1 [Example 10(k), [2-Methoxy-6-(4-morpholin-4-yl-phenyl)-pyrimidin-4-yl]-[2-(4-methoxy-phenyl)-ethyl]-amine]
278 nM	COc1nc(NCCc2ccc(Cl)cc2Cl)cc(-c2cccc(C(C)(C)C(=O)NC3CCOCC3)c2)n1 [Example 95(d), 2-(3-{6-[2-(2,4-Dichloro-phenyl)-ethylamino]-2-methoxy-pyrimidin-4-yl}-phenyl)-N-(tetrahydro-pyran-4-yl)-isobutyramide]
0.1 nM	COc1ccc(CCNc2cc(-c3cccc(O)c3)nc(OC)n2)cc1 [Example 15(a), 3-{2-Methoxy-6-[2-(4-methoxy-phenyl)-ethylamino]-pyrimidin-4-yl}-phenol hydrochloride]
56 nM	COCC(=O)NCCc1cccc(-c2cc(NCCc3ccc(C(F)(F)F)cc3F)nc(OC)n2)c1 [Example 64, N-[2-(3-{6-[2-(2-Fluoro-4-trifluoromethyl-phenyl)-ethylamino]-2-methoxy-pyrimidin-4-yl}-phenyl)-ethyl]-2-methoxy-acetamide]
0.05 nM	COc1nc(NCCc2ccc(Cl)cc2Cl)cc(-c2cccc(C3(C(=O)O)CCOCC3)c2)n1 [Example 80(a), 4-(3-{6-[2-(2,4-Dichloro-phenyl)-ethylamino]-2-methoxy-pyrimidin-4-yl}-phenyl)-tetrahydro-pyran-4-carboxylic acid]
2.6 nM	COc1ccc(CCNc2cc(-c3cccc(-c4nc(C)no4)c3)nc(OC)n2)cc1 [Example 36, {2-Methoxy-6-[3-(3-methyl-[1,2,4]oxadiazol-5-yl)-phenyl]-pyrimidin-4-yl}-[2-(4-methoxy-phenyl)-ethyl]-amine]
1690 nM	COc1cccc(-c2cc(NCCCc3ccccc3)nc(OC)n2)c1 [Example 43(l), [2-Methoxy-6-(3-methoxy-phenyl)-pyrimidin-4-yl]-(3-phenyl-propyl)-amine hydrochloride]
281 nM	COc1nc(NCCc2ccc(Cl)cc2Cl)cc(-c2cccc(C(C)(C)C(=O)N3CCOCC3)c2)n1 [Example 95(c), 2-(3-{6-[2-(2,4-Dichloro-phenyl)-ethylamino]-2-methoxy-pyrimidin-4-yl}-phenyl)-2-methyl-1-morpholin-4-yl-propan-1-one]
0.4 nM	COc1ccc(CCNc2cc(-c3ccc(F)c(C(=O)O)c3)nc(OC)n2)cc1 [Example 20(a), 2-Fluoro-5-{2-methoxy-6-[2-(4-methoxy-phenyl)-ethylamino]-pyrimidin-4-yl}-benzoic acid]
3.7 nM	COc1ccc(CCNc2cc(-c3cccc(-c4nnc(C)[nH]4)c3)nc(OC)n2)cc1 [Example 37, {2-Methoxy-6-[3-(5-methyl-2H-[1,2,4]triazol-3-yl)-phenyl]-pyrimidin-4-yl}-[2-(4-methoxy-phenyl)-ethyl]-amine]
55 nM	COc1ccc(CCNc2cc(-c3nnc(C)o3)nc(OC)n2)cc1 [Example 44, [2-Methoxy-6-(5-methyl-[-1,3,4]oxadiazol-2-yl)-pyrimidin-4-yl]-[2-(4-methoxy-phenyl)-ethyl]-amine]
70 nM	COC(=O)C1(c2cccc(-c3cc(NCCc4ccc(OC(F)(F)F)cc4)nc(OC)n3)c2)CCOCC1 [Example 84(b), 4-(3-{2-Methoxy-6-[2-(4-trifluoromethoxy-phenyl)-ethylamino]-pyrimidin-4-yl}-phenyl)-tetrahydro-pyran-4-carboxylic acid methyl ester]
17 nM	COc1ccc(CCNc2cc(-c3ccccc3O)nc(OC)n2)cc1 [Example 35(r), 2-{2-Methoxy-6-[2-(4-methoxy-phenyl)-ethylamino]-pyrimidin-4-yl}-phenol]
10 nM	COc1ccc(CCNc2cc(-c3cccnc3)nc(OC)n2)cc1 [Example 35(x), [2-methoxy-(6-pyridin-3-yl)-pyrimidin-4-yl]-[2-(4-methoxy-phenyl)-ethyl]-amine]
5.1 nM	COc1ccc(CCNc2cc(-c3cc4ccccc4s3)nc(OC)n2)cc1 [Example 10(g), (6-Benzo[b]thiophen-2-yl-2-methoxy-pyrimidin-4-yl)-[2-(4-methoxy-phenyl)-ethyl]-amine]

SMILES	IC50
COc1nc(NCCc2c(F)cccc2Cl)cc(-c2cccc(C=O)c2)n1 [Example 35(v), 3-{6-[2-(2-chloro-6-fluoro-phenyl)-ethylamino]-2-methoxy-pyrimidin-4-yl}-benzaldehyde]	3.6 nM
COc1nc(NCCc2ccc(F)cc2F)cc(-c2cccc(C(=O)O)c2)n1 [Example 7, 3-{6-[2-(2,4-Difluoro-phenyl)-ethylamino]-2-methoxy-pyrimidin-4-yl}-benzoic acid]	0.8 nM
CCNC(=O)Oc1cccc(-c2cc(NCCc3ccc(Cl)cc3Cl)nc(OC)n2)c1 [Example 60, Ethyl-carbamic acid 3-{6-[2-(2,4-dichloro-phenyl)-ethylamino]-2-methoxy-pyrimidin-4-yl}-phenyl ester]	0.5 nM
COc1ccc(CCNc2cc(-c3ccc4[nH]cnc4c3)nc(OC)n2)cc1 [Example 14(a), [6-(1H-Benzoimidazol-5-yl)-2-methoxy-pyrimidin-4-yl]-[2-(4-methoxy-phenyl)-ethyl]-amine]	2.7 nM
COc1ccc(CCNc2cc(-c3ccc4ncccc4c3)nc(OC)n2)cc1 [Example 10(a), [2-(4-Methoxy-phenyl)-ethyl]-(2-methoxy-6-quinolin-6-yl-pyrimidin-4-yl)-amine]	0.6 nM
COc1nc(NCCc2ccc(OC(F)(F)F)cc2)cc(-c2cccc(N)c2)n1 [Example 5, [6-(3-amino-phenyl)-2-methoxy-pyrimidin-4-yl]-[2-(4-trifluoromethoxy-phenyl)-ethyl]-amine]	9.6 nM
COc1ccc(CCNc2cc(-c3ccc(F)c(CN)c3)nc(OC)n2)cc1 [Example 27, [6-(3-Aminomethyl-4-fluoro-phenyl)-2-methoxy-pyrimidin-4-yl]-[2-(4-methoxy-phenyl)-ethyl]-amine hydrochloride]	41 nM
